{
  "source": "paper PMC11574108",
  "about": "“4-Furanylvinylquinoline derivative as a new scaffold for the design of oxidative stress initiator and glucose transporter inhibitor drugs” (Scientific Reports, 2024)",
  "key": {"PANC-1": {"system": "PANC-1", "assay": "Monolayer antiproliferative MTS assay", "assay_type": "cell-based, human", "details": "2D monolayer", "experimental": "(§1) The cells were seeded in 96-well plates (Nunc) with 5,000 or 4,000 cells per well for the cancer cells and NHDF, respectively, and incubated under standard conditions at 37 °C overnight. The culture media were then changed for freshly prepared solutions of the tested compounds in various concentrations. After 72-h incubation the antiproliferative assay was carried out as follows: the solutions of the compounds were changed in each well to 100 µL DMEM without phenol red and 20 µL of CellTiter 96 AQueous One Solution-MTS (Promega). The plates were incubated for 1 h at 37 °C, and the absorbance was then measured at 490 nm using a multi-plate reader (Synergy 4, BioTek). The experiment for each sample was repeated at least three times. The results are presented as the half-maximal inhibitory concentration (IC50) values, which were estimated in comparison to untreated cells (control) and calculated using GraphPad Prism v.8.0 (USA).\n(§2) However, the antiproliferative activity of derivative 13 with furan a ring was surprising. […] For this purpose, we selected two pancreatic cancer cell lines: AsPC-1, which is characterised by a deletion of the p53 protein[20] and PANC-1, which carries an R273H mutation. This mutation also occurred in the glioblastoma U-251 cell line[22],[23]. An additional non-adherent line that carries the TP53 mutation that results in the absence of p53 is the K562 leukemic cell line[24]. […] Moreover, 13 was selective toward […], as indicated by its SI values (3.35–9.41). Among all of the tested cell lines, the highest activity of the compound was found against the HCT 116 cells with the wild-type p53 protein (0.069 µM). […] The p53 protein also interacts with the metabolic pathways that are associated with glucose transport[25] as well as small molecules. In light of the above-mentioned facts, we also determined the cytotoxicity of the GLUT inhibitor BAY-876, which is based on a quinoline scaffold. […] Furthermore, BAY-876 was also toxic to normal cells."}, "AsPC-1": {"system": "AsPC-1", "assay": "Monolayer antiproliferative MTS assay", "assay_type": "cell-based, human", "details": "2D monolayer", "experimental": "as §1, §2"}, "NHDF": {"system": "NHDF", "assay": "Monolayer MTS cytotoxicity against normal cells", "assay_type": "cell-based", "details": "NHDF, normal human dermal fibroblasts, 72-h incubation", "excerpt": "(§3) The human colon carcinoma cell line HCT 116 with wild-type p53 (p53^+/+) and the human glioblastoma cell line U-251 were obtained from ATCC, while the HCT 116 with a p53 deletion (p53^−/−) was kindly provided by Prof. M. Rusin from the Maria Sklodowska-Curie Memorial Cancer Center and Institute of Oncology in Gliwice, Poland. The human chronic myelogenous leukaemia cell line K562 and the normal human cell dermal fibroblast cell line NHDF were purchased from Sigma-Aldrich and PromoCell, respectively. Both the HCT 116 and U-251 cell lines were cultured in Dulbecco’s modified Eagle’s medium (DMEM) supplemented with 10% inactivated foetal bovine serum (FBS). The DMEM for the NHDF contained 15% non-inactivated FBS. K562 cells were cultured in RPMI medium completed by 10% inactivated FBS. Additionally, the media were supplemented with antibiotics (streptomycin and penicillin – 1% v/v; Sigma-Aldrich). The cell culture was conducted in 75 cm^2 flasks (Nunc) under standard conditions (37 °C, 5% CO2 humidified atmosphere). Furthermore, the cell lines were frequently tested for mycoplasma using the qRT-PCR technique with specific Mycoplasma primers to confirm the lack of contamination.\nas §1, with “times.” for “times. The results are presented as the half-maximal inhibitory concentration (IC50) values, which were estimated in comparison to untreated cells (control) and calculated using GraphPad Prism v.8.0 (USA).”\n(§4) Additionally, the compounds were also tested for their cytotoxicity against normal cells – human dermal fibroblasts (NHDF)."}, "GLUT-1": {"system": "GLUT-1", "assay": "qRT-PCR, GLUT-1 mRNA expression", "assay_type": "cell-based, human", "details": "HCT 116 p53-/-, 24 and 48 h", "experimental": "The cells were seeded in 35 mm Petri dishes at a density of 500,000 cells and incubated at 37 °C for 24 h. The total RNA was isolated after incubation with solutions of 13 (0.5 µM and 1.0 µM) for 24 h and 48 h, respectively. The isolation from the samples was carried out according to a TRIzol™ Reagent protocol (Thermo Fisher Scientific). Synthesis of cDNA was performed with 2 µg of total RNA using a GoScript™ Reverse Transcriptase kit (Promega) with Oligo(dT)23 Primers. Real-Time PCR was carried out using a CFX96 Touch™ Real-Time PCR Detection System (Bio-Rad) in 10 µL reaction volume. Each sample contained SsoAdvanced™ Universal SYBR Green Supermix (Bio Rad), a specific primer pair mix (0.5 µM each), and 1 µL of cDNA. […] The obtained data were analysed based on a comparison of the expression of the target genes and normalized to a reference gene (GAPDH) using the Livak-Schmittgen (2^−ΔΔCT) method. […]\nTo verify the effect of derivative 13 on glucose transporters at the mRNA level, the expression of the genes encoding the best-characterised glucose transporters in cells was quantified in real-time. In addition to GLUT-1, the effect of the tested derivative on changes in the expression of GLUT-3 and GLUT-4 was also evaluated (Fig. 8). […]"}, "HCT 116 p53+/+": {"system": "HCT 116 p53+/+", "assay": "Monolayer antiproliferative MTS assay", "assay_type": "cell-based, human", "details": "2D monolayer", "excerpt": "as §3\nas §1, with “times.” for “times. The results are presented as the half-maximal inhibitory concentration (IC50) values, which were estimated in comparison to untreated cells (control) and calculated using GraphPad Prism v.8.0 (USA).”\nas §4"}, "HCT 116 p53-/-": {"system": "HCT 116 p53-/-", "assay": "Monolayer antiproliferative MTS assay", "assay_type": "cell-based, human", "details": "2D monolayer", "excerpt": "as §3\nas §1, with “times.” for “times. The results are presented as the half-maximal inhibitory concentration (IC50) values, which were estimated in comparison to untreated cells (control) and calculated using GraphPad Prism v.8.0 (USA).”\nas §4"}, "U-251": {"system": "U-251", "assay": "Monolayer antiproliferative MTS assay", "assay_type": "cell-based, human", "excerpt": "as §3, §1, §2"}, "[1]": {"details": "Homo sapiens, HCT-116, 72 h, MTS, 72-h incubation"}},
  "data": [
    {"smiles": "Cc1c(NC(=O)c2cc(C(N)=O)nc3cc(F)ccc23)c(C(F)(F)F)nn1Cc1ccc(C#N)cc1", "note": "[BAY-876]", "values": [
      {"measurement": "SI (selectivity index) PANC-1", "setting": "PANC-1; relative to NHDF", "result": 123.71},
      {"measurement": "IC50", "setting": "PANC-1; Homo sapiens, PANC-1, 72 h, MTS, 72-h incubation", "result": "35 ± 4", "unit": "nM"},
      {"measurement": "SI (selectivity index) AsPC-1", "setting": "AsPC-1; relative to NHDF", "result": 27.06},
      {"measurement": "IC50", "setting": "AsPC-1; Homo sapiens, ASPC1, 72 h, MTS, 72-h incubation", "result": "160 ± 10", "unit": "nM"},
      {"measurement": "IC50", "setting": "NHDF", "result": "4330 ± 480", "unit": "nM"},
      {"measurement": "GLUT-1 mRNA level vs control", "setting": "GLUT-1", "result": "increased its expression"},
      {"measurement": "SI (selectivity index) HCT 116 p53+/+", "setting": "HCT 116 p53+/+; relative to NHDF", "result": 2.53},
      {"measurement": "IC50", "setting": "HCT 116 p53+/+; [1]", "result": "1710 ± 270", "unit": "nM"},
      {"measurement": "SI (selectivity index) HCT 116 p53-/-", "setting": "HCT 116 p53-/-; relative to NHDF", "result": 0.40},
      {"measurement": "IC50", "setting": "HCT 116 p53-/-; [1]", "result": "10800 ± 810", "unit": "nM"},
      {"measurement": "SI (selectivity index) U-251", "setting": "U-251; 2D monolayer, relative to NHDF", "result": "< 0.17"},
      {"measurement": "IC50", "setting": "U-251; Homo sapiens, U-251, 72 h, 2D monolayer, MTS, 72-h incubation", "result": "> 25000", "unit": "nM"},
      {"measurement": "activity in U-251", "setting": "U-251; at 25 µM", "result": "not active"}
    ]}
  ]
}
